Assay results taken from patent US6680025B2, “Device and method for photoactivation” (Cerus Corporation, priority 1989, dated 2004).
Marks after values point to notes of the source that are not given here.

What was measured:
Taq I DNA polymerase = assay: Primer extension on site-specific monoadducted 71-mer, Taq polymerase; format: biochemical, Thermus aquaticus; conditions: for Taq polymerase extension on 71-mer monoadduct template: 55° C., single extension
Protocol: In this experiment, monoadducted 71-mers (as well as unmodified 71-mers) were used in template-dependent enzymatic extension. AMIP, AMDMIP, and MIP 71-mer monoadducts were made as in Example 42. Extension was carried out as in Example 43 except that in this experiment, Taq I DNA polymerase, a thermostable DNA polymerase isolated from Thermus aquaticus (Stratagene, Inc., La Jolla, Calif.) was assessed for its ability to read past isopsoralens.
The reaction mixture was in 80 μl total volume and comprised 1×Taq buffer, 200 μM each of dNTP's, 0.05 units of Taq per μl of reaction volume; 1×10^−9 M in 71-mer MA; 1×10^−8 M in ^32P-labelled SK-39. Each reaction was set up with everything except Taq polymerase. The samples were initially heated to 95° C. for 5 mins, then incubated at 55° C. for 3 mins. The extension reaction was initiated by addition of Tas polymerase. At the indicated time points (0.5, 1.0, 5.0 mins), 20 μl of the reaction mix was removed to a tube containing 1 μl of 0.5 M EDTA to stop the reaction. All products were analyzed on a 20% polyacrylamide, 7 M urea gel followed by autoradiography.
This experiment investigated whether blocking of Tag polymerase by monoadducts is complete or whether monoadducts can be bypassed by the enzyme. In order to view the process of bypass syrthesis, it is necessary to cycle the extension reaction of the primer with the 71-mer templates. Cycling in this case consists of mixing the primer with the 71-mer template, adding Taq polymerase and appropriate reagents, extending, heating to induce strand separation, reannealing of the primer to the 71-mer template, extending again, and subsequent stand separation. This process can be repeated as necessary. During this process, only the complement of the 71-mer template is being synthesized. It is accumulating in a linear fashion with the number of thermal cycles (in contrast to PCR where both strands are being synthesized and accumulate geometrically).
The templates and reaction conditions were as in Example 44 above except that three samples were used for each monoadduct and each sample was tested under different conditions:
Samples (1): one sample for each monoadduct was used to carry out extension at 55° C. as in Example 43;
Samples (2): one sample for each monoadduct was used to carry out extension by the following series of steps: denaturing at 95° C.; incubating for 30 seconds at 55° C.; adding Taq polymerase for 3 minutes at 55° C.; cooling the reaction for 1 minute at 7° C.; stopping the reaction with EDTA for one minute at 95° C.
Samples (3): one sample for each monoadduct was used to carry out extension by repeating the following series of steps nine times: denaturing at 95° C.; incubating for 30 seconds at 55° C.; adding Taq polymerase for 3 minutes at 55° C.; cooling the reaction for 1 minute at 7° C. At the end, the reaction is stopped with EDTA for one minute at 95° C.
To investigate this question further, a new 5-MIP monoadducted 71-mer was prepared by repurification of the HPLC purified 5-MIP ronoadducted 15-mer by PAGE. In this way, more of the non-monoadducted 15-mer was removed prior to ligation. The purified 71-mer was then used as template in an extension experiment as described in Example 45. After 10 cycles, there was still evidence of extension product (FIG. 34).
Monoadducted 71-mer was constructed as described, but for HMT. Extension was carried out and analyzed as before on PAGE. […] Full length 71-mer is not made and a shorter strand corresponding to the position of the HMT adduct was made.

[1] = Solubility of photoreactive compounds in 1×TE; format: physicochemical; conditions: excess compound heated 50-70° C., stirred at room temperature, filtered; optical density
Protocol: The solubilities of AMIP, AMDMIP, DMIP, MIP and isopsoralen (IP) were determined experimentally according to the scheme set forth in FIG. 5. To perform the solubility measurement, it was first necessary to establish known optical densities for a 1 μg/ml solution of each compound. These were determined by preparing either ethanolic or aqueous stocks of each compound at known concentrations in 1×TE, then measuring the optical density of each solution. From this information, the absorption of a 1 μg/ml solution was computed. Alternatively, the extinction coefficient may be thus determined and used in the same fashion. In this manner, the following absorption data was collected:
Following this step, undissolved compound was removed by filtration using a 0.2 u nylon-66 syringe filter (Arco LC13; Gelman). The concentration of the remaining soluble compound was then determined by measuring the optical density of the filtrate and computing the solubility from the known optical density of a 1 μg/ml solution of that compound. The solubility of the compounds was thus determined to be as follows: […]

[2] = PAGE-repurified monoadducted 71-mer, after 10 cycles

| Compound | Taq polymerase extension on 71-mer monoadduct template (Taq I DNA polymerase) | Solubility in 1 × TE [1] | full length extension product as share of total extension products (Taq I DNA polymerase; [2]) | truncated extension products as share of total (Taq I DNA polymerase; [2]) |
| --- | --- | --- | --- | --- |
| Cc1oc2ccc3c(C)cc(=O)oc3c2c1CN [AMDMIP, 4′-Aminomethyl-4,5′-dimethylisopsoralen] | stops at positions that are shorter than the full length 71-mer product | >22,700* ug/ml | – | – |
| NCc1cc2occc2c2oc(=O)ccc12 [AMIP, 5-Aminomethylisopsoralen] | stops at positions that are shorter than the full length 71-mer product | 21,000 ug/ml | – | – |
| Cc1cc2occc2c2oc(=O)ccc12 [MIP, 5-Methylisopsoralen] | stops at positions that are shorter than the full length 71-mer product | nd (nd = not detectable (solubility was less than 1 μg/ml)) | 2.3% | 97.7% |
